What was measured:
C2C12 cells [1] = assay: Cell proliferation/viability assay (Resazurin / Alamar blue) in C2C12 cells; format: cell-based, Mouse
Experimental: Cell proliferation/viability assay: Cells were seeded at a density of 500 cells/well on 96-well plates. After 24 hr, compound (i.e., 5 nM, 50 nM, 500 nM or 5000 nM) was added to the cells in the presence or absence of calcium phosphate matrix (5 mg/mL). […] At the specified time, 1 μg of Resazurin was added to each well of the 96-well plate and the fluorescence signal at 590 nm (excitation at 530 nm) was immediately measured. Readings were designated as time zero values (value0h). Cells were incubated for 1 hr before a second fluorescence measurement at 590 nm was made (value1h). The difference in 1 hr and 0 h (value1h−value0h) readings were used to plot the fold-change in cell proliferation/viability after normalizing to control conditions (i.e., DMSO vehicle treatment). Compounds of Formula II or IV that activate Wnt signaling and compounds of Formula VI that activate TLR signaling pathways were analyzed. This protocol was applied to hMSC and E15 cells as well. Cell proliferation was not robust in keeping with a narrow number of cells highly committed to the bone cell lineage.

hMSCs [2] = assay: qPCR of target gene mRNA expression in hMSCs; format: cell-based, human; settings: hMSCs, comparison with compound 3 and calcium phosphate ceramic
Experimental: qPCR detection of osteogenic markers: Cells were cultured with compound in the presence or absence of matrix as described above, but using 96-well plate format. Total RNA was extracted from cells (as above) using Trizol. cDNA was made using 750 ng of total RNA with Bio-Rad iscript kit and was diluted 20-fold before being used for qPCR. qPCR was conducted under the following conditions: 95° C., 2 min; 95° C., 10 s and 60° C., 45 s for 40 cycles; 60° C. for 71 cycles for melt curve. qPCR results were analyzed by the ΔΔCt method. 18s rRNA was used as an internal standard. This protocol was applied to hMSC and E15 cells.
Runx2 and BMP-2 are osteogenic markers; Axin2, Wnt3a, and Sox 9 are Wnt-inducible gene markers.
The assay for mRNA expression followed the same procedure with hMSCs as described for C2C12 cells (Example 7).

C2C12 cells [3] = assay: Alkaline Phosphatase (ALP) functional activity assay in C2C12 cells; format: cell-based, Mouse; settings: for activation at 0.5 µM: Mus musculus, C2C12, 144 h, compounds of Formula VI, normalized to DMSO treatment
Experimental: Alkaline Phosphatase (ALP) Functional Activity Assay: C2C12 cells were plated into 12-well plates with 7,000 cells/well in 1 mL growth media. […] 1, 2, 3, or 4 in 0.1% DMSO was added (500 nM). Half the media was exchanged with fresh media containing compound every 48 hrs. After 6 days, media was removed, ALP Lysis Buffer (10 mM Tris-HCl pH 8.0, 1 mM MgCl2, and 1% Triton X100) added, and cell lysate obtained (10 min incubation at RT) by centrifugation (5 min at 3500× g at 4° C.). Para-nitrophenol phosphate (pNPP) (2 mg/mL) was incubated with 50 μl cell lysate (10 mins, 37° C.). After addition of […] 0.02 N NaOH, absorbance OD405 was measured. Protein concentration was determined by Bradford protein assay. Results of ALP activity were plotted as nM pNP hydrolyzed/mg total protein. After normalizing control samples (i.e., DMSO-treated samples) to one-fold, the fold-changes were plotted to indicate the relative ALP activity. […] This protocol was applied to hMSC and E15 cells as well.

Solubility in water = format: physicochemical
hMSCs [4] = assay: TLR4/TLR3 mRNA expression ratio by qPCR in hMSCs; format: cell-based, human; settings: 500 nM, 8 days
Source text: TLRs are modulators of hMSC differentiation. TLRs (TLR1-10) mRNA could be detected by qPCR in hMSCs. TLR4 is a biomarker for osteogenesis and TLR3 is a biomarker for adipogenesis. […]

hMSCs [5] = assay: qPCR of apoptosis biomarkers (Bax and Fos) in hMSCs; format: cell-based, human
hMSCs [6] = assay: Transwell migration of hMSCs to calcium phosphate matrix; format: cell-based, human; settings: 500 nM
Experimental: Human MSC migration to the site of bone injury is an important part of the repair process. […] After 8 hrs, compounds were washed off the cells and cells placed in a traditional transwell migration system. The top reservoir contained serum-free DMEM and the bottom reservoir contained DMEM plus 2% FBS. After incubation overnight, non-migrated cells were removed, migrated cells (stuck in the bottom chamber) were then fixed with 70% EtOH (40 mins) and total migrated cells were counted under a microscope after staining with 1 mg/mL of crystal violet (1 hr). hMSCs treated with compound 2 (500 nM, 8 hr) induced a 10-fold greater cell migration to the matrix than DMSO-pre-treated cells under the conditions described above. In a separate experiment, matrix that was pre-coated with compound 4 (as prepared in Example 5) was placed in the bottom chamber and migration of hMSCs from the top chamber was evaluated. Compound 4-coated matrix induced a 2-fold increase in cell migration to the matrix compared to DMSO-treated cells.
hMSC migration was analyzed by using calcium phosphate matrix that had been pre-adsorbed with compounds 1 or 2 (500 nM, as described in Example 5) and studied in the transwell system (2% serum, described above). Compound 1 and 2 induced 3.5-fold and 1.9-fold more cell migration than non-coated ceramic. While non-limiting, these examples show the utility of the approach for increased cell migration and localization to the calcium phosphate ceramic matrix when compounds of the disclosure are present. Use of compounds of Formula II, IV, and VI to pre-coat the ceramic and also pretreat the cells is also of utility.

C2C12 cells [7] = assay: Alizarin Red S staining (calcium deposition) in C2C12 cells; format: cell-based, Mouse; settings: 500 nM, 25 days of treatment
Experimental: Alizarin Red S Staining: C2C12 cells were cultured as described for the ALP functional activity assay (above, except compound was added every 48 hr for 25 days), but using 48-well plate format. On day 25, medium was removed and the cells were washed with PBS (calcium and magnesium free). Cells were fixed with 70% ethanol at room temperature for 30 mins, rinsed with water 3×. Following removal of water, 200 μl of Alizarin Red S (2%, pH 4.1) was added to each well and incubated for at least 20 mins. The dye was removed and the cells were washed with excess H2O four times with gentle mixing. The cells were covered with water to prevent evaporation and analyzed by plate reader or microscope. This protocol was applied to hMSC and E15 cells.

hMSCs [8] = assay: Alkaline Phosphatase functional activity assay in hMSCs; format: cell-based, human; parameters: key to Alkaline Phosphatase activity, −matrix, 8 days / Alkaline Phosphatase activity, +matrix, 8 days / Alkaline Phosphatase activity, −matrix, 25 days / Alkaline Phosphatase activity, +matrix, 25 days: fold-change vs DMSO-treated control (control = 1); settings: 500 nM
C2C12 cells [9] = assay: qPCR of apoptosis biomarkers (Bax and Fos) in C2C12 cells; format: cell-based, Mouse; settings: 500 nM or 5 μM every 48 hrs, up to 25 days
C2C12 cells [10] = assay: qPCR detection of osteogenic markers in C2C12 cells; format: cell-based, Mouse; settings: 500 nM, 6 days
hMSCs [11] = assay: Alamar blue cell viability assay in hMSCs; format: cell-based, human; settings: 500 nM, 25-day-old hMSCs
Experimental: Cell proliferation/viability assay: Cells were seeded at a density of 500 cells/well on 96-well plates. After 24 hr, compound (i.e., 5 nM, 50 nM, 500 nM or 5000 nM) was added to the cells in the presence or absence of calcium phosphate matrix (5 mg/mL). One-half of the media was replaced with fresh media containing compound every 48 hours for 8 days. At the specified time, 1 μg of Resazurin was added to each well of the 96-well plate and the fluorescence signal at 590 nm (excitation at 530 nm) was immediately measured. Readings were designated as time zero values (value0h). Cells were incubated for 1 hr before a second fluorescence measurement at 590 nm was made (value1h). The difference in 1 hr and 0 h (value1h−value0h) readings were used to plot the fold-change in cell proliferation/viability after normalizing to control conditions (i.e., DMSO vehicle treatment). Compounds of Formula II or IV that activate Wnt signaling and compounds of Formula VI that activate TLR signaling pathways were analyzed. This protocol was applied to hMSC and E15 cells as well. Cell proliferation was not robust in keeping with a narrow number of cells highly committed to the bone cell lineage.
The assay for cell proliferation followed the same procedure with hMSCs as described for C2C12 cells (Example 7).

Wnt transcription = assay: WNT transcriptional reporter assay (Super(8×)TOPflash luciferase, HEK293T cells); format: cell-based; settings: Wnt3A-expressing vector, 20 hrs, relative to cells treated with DMSO alone, read-out: Wnt transcription potency
Source text: Commercially available Super(8×)TOPflash vector driven by a (7×) TCF-firefly luciferase response element was transiently transfected into HEK293T cells, together with a TK-driven Renilla luciferase plasmid as an internal control to normalize the luminescence signal and a Wnt3A-expressing vector as the source of pathway activation. HEK293T cells were transfected with plasmids in DMEM plus 10% fetal bovine serum (FBS) for 8 hr, replated to 96-well plates in DMEM plus 10% FBS followed by treatment with compounds (1.6 nM to 5 M) (DMSO final concentration is 0.5%) for 20 hrs. Firefly and Renilla luciferase activities were measured and normalized by the Renilla luciferase values.

[12] = matrix 5 mg/mL, mean +/− SD (n = 3)

For O=C(C=Cc1ccc(O)cc1)C=C(O)C=Cc1ccc(O)cc1 [Compound 54, 1,7-Bis(4-hydroxyphenyl)-5-hydroxy-hepta-1,4,6-trien-3-one], the “increase in cell proliferation (Alamar Blue Assay)” value (C2C12 cells [1]; 50 nM, 3 days) was 2 fold, the “robust mRNA up-regulation of VDR or ALP” value (hMSCs [2]) was “not observed” and the activation at 0.5 µM (C2C12 cells [3]; absence of matrix) was 5 to 50%. The activation at 0.5 µM (C2C12 cells [3]; presence of calcium phosphate matrix) was 50 to 100% and the solubility in water (Solubility in water) was “only sparingly soluble”.
For Cc1nc2c(-c3ccccc3)cnn2c(NCCN(C)C)c1C [Compound 2, 3-phenyl-5,6-dimethyl-7-[N-(2-N,N-dimethylaminoethyl)amino]-pyrazolo[1,5-a]pyrimidine], the “cell viability (Alamar blue)” value (C2C12 cells [1]; 500 nM every 48 hrs for 25 days) was “did not show a decrease in cell viability”, the “TLR4/TLR3 ratio, compound alone” value (hMSCs [4]) was “modest increase” and the “gene expression of apoptosis biomarkers (Bax and Fos)” value (hMSCs [5]; 500 nM to 5 μM, up to 25 days) was “unable to detect gene expression of typical apoptosis biomarkers”. The “cytotoxicity as determined by quantification of apoptosis” value (hMSCs [5]; hMSCs) was “no cytotoxicity”, the “ALP activity, combination of compound and matrix compared to compound alone or matrix alone” value (C2C12 cells [3]; 500 nM, 6 day incubation, tricalcium phosphate ceramic matrix 5 mg/mL (FIG. 2)) was “synergistic increase in ALP activity” and the “ALP activity fold-changes +/− SD, +matrix” value (C2C12 cells [3]; 500 nM, 6 days of culture, calcium phosphate ceramic 5 mg/mL) was 23.6 ± 2.5 fold. For the same molecule, the “cell migration to the matrix, hMSCs pre-treated with compound, versus DMSO-pre-treated cells” value (hMSCs [6]; 8 hr pre-treatment, transwell overnight) was 10 fold, the “cell migration to matrix pre-adsorbed with compound versus non-coated ceramic” value (hMSCs [6]; transwell, 2% serum) was 1.9 fold and the “calcium deposition, absence of matrix” value (C2C12 cells [7]) was 2.0 fold. For the same molecule, the “calcium deposition, presence of matrix” value (C2C12 cells [7]) was 2.3 fold, the “ALP functional activity, compound and matrix versus compound alone or matrix alone” value (hMSCs [8]; 8 and 25 day incubations, matrix 5 mg/mL (FIG. 3)) was “exceeded the effect of compound alone or matrix alone” and the “Alkaline Phosphatase activity, +matrix, 8 days” value (hMSCs [8]; [12]) was 2.6 ± 0.3. For the same molecule, the “Alkaline Phosphatase activity, +matrix, 25 days” value (hMSCs [8]; [12]) was 4.5 ± 0.4, the “Alkaline Phosphatase activity, −matrix, 25 days” value (hMSCs [8]; mean +/− SD (n = 3)) was 2.6 ± 0.3 and the “Alkaline Phosphatase activity, −matrix, 8 days” value (hMSCs [8]; mean +/− SD (n = 3), fold) was 1.5 ± 0.1. For the same molecule, the “gene expression of apoptosis biomarkers (Bax and Fos)” value (C2C12 cells [9]) was “unable to detect gene expression of typical apoptosis biomarkers”, the “ID3 mRNA expression, presence of matrix” value (C2C12 cells [10]) was 1.7 fold and the “cell viability (Alamar blue)” value (hMSCs [11]) was “no decrease in cell viability”. The EC50 (Wnt transcription) was greater than 40 nM.
